Measurements published in patent US20100035871A1, “BENZOXAZINE DERIVATIVES AND USES THEREOF” (priority 2006, published 2010).
Where a name gives a salt, the structure may show the parent alone.

SMILES | melting point
NC[C@H]1CNc2cccc(-c3ccccc3Cl)c2O1 (as salt: hydrochloride) [Example 39, 1-[(2S)-8-(2-chlorophenyl)-3,4-dihydro-2H-1,4-benzoxazin-2-yl]methanamine] | 145 °C (dec.)
NC[C@@H]1CNc2cccc(-c3ccccc3Cl)c2O1 (as salt: hydrochloride) [Example 40, 1-[(2R)-8-(2-chlorophenyl)-3,4-dihydro-2H-1,4-benzoxazin-2-yl]methanamine] | 135 °C (dec.)
NC[C@@H]1CNc2cccc(-c3ccccc3C(F)(F)F)c2O1 (as salt: hydrochloride) [Example 41, 1-{(2R)-8-[2-(trifluoromethyl)phenyl]-3,4-dihydro-2H-1,4-benzoxazin-2-yl}methanamine] | 180 °C (dec.)
Cc1cc(Cl)ccc1-c1cccc2c1O[C@H](CN)CN2 (as salt: hydrochloride) [Example 42, 1-[(2R)-8-(4-chloro-2-methylphenyl)-3,4-dihydro-2H-1,4-benzoxazin-2-yl]methanamine] | 195 °C (dec.)
NC[C@@H]1CNc2cccc(-c3ccccc3F)c2O1 (as salt: hydrochloride) [Example 43, 1-[(2R)-8-(2-fluorophenyl)-3,4-dihydro-2H-1,4-benzoxazin-2-yl]methanamine] | 186 °C (dec.)
COc1ccc(-c2cccc3c2O[C@H](CN)CN3)c(C)c1 (as salt: hydrochloride) [Example 44, 1-[(2R)-8-(4-methoxy-2-methylphenyl)-3,4-dihydro-2H-1,4-benzoxazin-2-yl]methanamine] | 221 °C (dec.)
COc1ccc(-c2cccc3c2O[C@H](CN)CN3)cc1 (as salt: hydrochloride) [Example 45, 1-[(2R)-8-(4-methoxyphenyl)-3,4-dihydro-2H-1,4-benzoxazin-2-yl]methanamine] | 196 °C (dec.)
COc1ccc(-c2cccc3c2O[C@H](CN)CN3)c(Cl)c1 (as salt: hydrochloride) [Example 46, 1-[(2R)-8-(2-chloro-4-methoxyphenyl)-3,4-dihydro-2H-1,4-benzoxazin-2-yl]methanamine] | 211 °C (dec.)
NC[C@H]1CNc2cccc(-c3ccccc3C(F)(F)F)c2O1 (as salt: hydrochloride) [Example 47, 1-{(2S)-8-[2-(trifluoromethyl)phenyl]-3,4-dihydro-2H-1,4-benzoxazin-2-yl}methanamine] | 179 °C (dec.)
Cc1cc(Cl)ccc1-c1cccc2c1O[C@@H](CN)CN2 (as salt: hydrochloride) [Example 48, 1-[(2S)-8-(4-chloro-2-methylphenyl)-3,4-dihydro-2H-1,4-benzoxazin-2-yl]methanamine] | 196 °C (dec.)
NC[C@H]1CNc2cccc(-c3ccccc3F)c2O1 (as salt: hydrochloride) [Example 49, 1-[(2S)-8-(2-fluorophenyl)-3,4-dihydro-2H-1,4-benzoxazin-2-yl]methanamine] | 190 °C (dec.)
COc1ccc(-c2cccc3c2O[C@@H](CN)CN3)c(C)c1 (as salt: hydrochloride) [Example 50, 1-[(2S)-8-(4-methoxy-2-methylphenyl)-3,4-dihydro-2H-1,4-benzoxazin-2-yl]methanamine] | 222 °C (dec.)
COc1ccc(-c2cccc3c2O[C@@H](CN)CN3)cc1 (as salt: hydrochloride) [Example 51, 1-[(2S)-8-(4-methoxyphenyl)-3,4-dihydro-2H-1,4-benzoxazin-2-yl]methanamine] | 198 °C (dec.)
COc1ccc(-c2cccc3c2O[C@@H](CN)CN3)c(Cl)c1 (as salt: hydrochloride) [Example 52, 1-[(2S)-8-(2-chloro-4-methoxyphenyl)-3,4-dihydro-2H-1,4-benzoxazin-2-yl]methanamine] | 215 °C (dec.)
NC[C@@H]1CNc2cccc(-c3cc(Cl)ccc3Cl)c2O1 (as salt: hydrochloride) [Example 53, 1-[(2R)-8-(2,5-dichlorophenyl)-3,4-dihydro-2H-1,4-benzoxazin-2-yl]methanamine] | 130 °C (dec.)
NC[C@@H]1CNc2cccc(-c3ccc(Cl)cc3Cl)c2O1 (as salt: hydrochloride) [Example 54, 1-[(2R)-8-(2,4-dichlorophenyl)-3,4-dihydro-2H-1,4-benzoxazin-2-yl]methanamine] | 163 °C (dec.)
NC[C@@H]1CNc2cccc(-c3ccc(Cl)cc3C(F)(F)F)c2O1 (as salt: hydrochloride) [Example 67, 1-{(2R)-8-[4-chloro-2-(trifluoromethyl)phenyl]-3,4-dihydro-2H-1,4-benzoxazin-2-yl}methanamine] | 203 °C (dec.)
COc1ccccc1-c1cccc2c1OC(CN)CN2C (racemic) (as salt: hydrochloride) [Example 1, 1-[8-(2-Methoxyphenyl)-4-methyl-3,4-dihydro-2H-1,4-benzoxazin-2-yl]methanamine] | 90 °C (dec.)
Cc1cc(Cl)ccc1-c1cccc2c1OC(CN)CN2C (racemic) (as salt: hydrochloride) [Example 2, 1-[8-(4-Chloro-2-methylphenyl)-4-methyl-3,4-dihydro-2H-1,4-benzoxazin-2-yl]methanamine] | 109 to 112 °C
CN1CC(CN)Oc2c(-c3ccc(Cl)cc3Cl)cccc21 (racemic) (as salt: hydrochloride) [Example 3, 1-[8-(2,4-Dichlorophenyl)-4-methyl-3,4-dihydro-2H-1,4-benzoxazin-2-yl]methanamine] | 90 °C (dec.)
CN1CC(CN)Oc2c(-c3ccccc3C(F)(F)F)cccc21 (racemic) (as salt: hydrochloride) [Example 4, 1-{4-Methyl-8-[2-(trifluoromethyl)phenyl]-3,4-dihydro-2H-1,4-benzoxazin-2-yl}methanamine] | 90 °C (dec.)
COc1ccc(-c2cccc3c2OC(CN)CN3C)c(C)c1 (racemic) (as salt: hydrochloride) [Example 5, 1-[8-(4-Methoxy-2-methylphenyl)-4-methyl-3,4-dihydro-2H-1,4-benzoxazin-2-yl]methanamine] | 85 °C (dec.)
COc1ccc(-c2cccc3c2OC(CN)CN3C)cc1 (racemic) (as salt: hydrochloride) [Example 6, 1-[8-(4-Methoxyphenyl)-4-methyl-3,4-dihydro-2H-1,4-benzoxazin-2-yl]methanamine] | 90 to 92 °C
CN1CC(CN)Oc2c(-c3ccccc3F)cccc21 (racemic) (as salt: hydrochloride) [Example 7, 1-[8-(2-Fluorophenyl)-4-methyl-3,4-dihydro-2H-1,4-benzoxazin-2-yl]methanamine] | 104 °C (dec.)
Cc1ccccc1-c1cccc2c1OC(CN)CN2C (racemic) (as salt: hydrochloride) [Example 8, 1-[4-Methyl-8-(2-methylphenyl)-3,4-dihydro-2H-1,4-benzoxazin-2-yl]methanamine] | 92 °C (dec.)
CN1CC(CN)Oc2c(-c3ccccc3)cccc21 (racemic) (as salt: hydrochloride) [Example 9, 1-(4-Methyl-8-phenyl-3,4-dihydro-2H-1,4-benzoxazin-2-yl)methanamine] | 80 °C (dec.)
